Results taken from patent publication US6806230B1, “Pyrimidine derivatives and herbicides containing them” (Kumiai Chemical Industry Co., Ltd., priority 1999, dated 2004).

What was measured:
[1] = tested on: barnyard grass (Eo); assay: Test Example 1: herbicidal effects by flooded paddy field treatment; format: in vivo; parameters: herbicidal effects, Eo (barnyard grass):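 0-5 growth inhibition grade; 5 = over 90%; 4 = 70-90%; 3 = 50-70%; 2 = 30-50%; 1 = 10-30%; 0 = under 10%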; conditions: for Herbicidal effect index, Eo: dose 100 gai/10a, examined on 21st day after treatment, index 0-5 per Table 44; for herbicidal effects, Eo (barnyard grass): dose 100 g active ingredient per 10 ares, examined on the 21st day after treatment, standards of Table 44;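 on Herbicidal effect index, Eo: 0-5 growth inhibition grade; 5 = over 90%; 4 = 70-90%; 3 = 50-70%; 2 = 30-50%; 1 = 10-30%; 0 = under 10%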
Method in brief: (§1)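 Puddled paddy soil in pots, seeds sown, 3 cm flood. Day after sowing: wettable powder diluted in water, applied dropwise to water surface, 100 g a.i./10 ares. Greenhouse; visual herbicidal rating at day 21 post-treatment.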

[2] = tested on: monochoria (Mo); assay: as above; format: in vivo; parameters: herbicidal effects, Mo (monochoria):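 0-5 growth inhibition grade; 5 = over 90%; 4 = 70-90%; 3 = 50-70%; 2 = 30-50%; 1 = 10-30%; 0 = under 10%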; conditions: for Herbicidal effect index, Mo: dose 100 gai/10a, examined on 21st day after treatment, index 0-5 per Table 44; for herbicidal effects, Mo (monochoria): dose 100 g active ingredient per 10 ares, examined on the 21st day after treatment, standards of Table 44
Method in brief: as §1

[3] = tested on: barnyard grass (Ec); assay: Test Example 2: herbicidal effects by upland soil treatment; format: in vivo; parameters: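 0-5 growth inhibition grade; 5 = over 90%; 4 = 70-90%; 3 = 50-70%; 2 = 30-50%; 1 = 10-30%; 0 = under 10%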; conditions: dose 100 g active ingredient per 10 ares, examined on the 21st day after treatment, standards of Table 44
Method in brief: (§2)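 Pre-emergence test: barnyard grass and green foxtail sown in upland soil, then soil surface sprayed with wettable-powder formulation at 100 g active ingredient per 10 ares (100 l per 10 ares). Grown in greenhouse; herbicidal effect scored on a rating scale 21 days after treatment.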

[4] = tested on: green foxtail (Se); assay: as above; format: in vivo; conditions: dose 100 g active ingredient per 10 ares, examined on the 21st day after treatment, standards of Table 44;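 further: 0-5 growth inhibition grade; 5 = over 90%; 4 = 70-90%; 3 = 50-70%; 2 = 30-50%; 1 = 10-30%; 0 = under 10%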
Method in brief: as §2

[5] = tested on: barnyard grass (Ec); assay: Test Example 3: herbicidal effects by foliage treatment in upland field; format: in vivo; parameters: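 0-5 growth inhibition grade; 5 = over 90%; 4 = 70-90%; 3 = 50-70%; 2 = 30-50%; 1 = 10-30%; 0 = under 10%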; conditions: dose 100 g active ingredient per 10 ares, examined on the 14th day after treatment
Method in brief: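 Barnyard grass and green foxtail were grown in upland soil for 2 weeks in a greenhouse. A water-diluted wettable powder was sprayed over the foliage at 100 l per 10 ares, giving 100 g active ingredient per 10 ares. Herbicidal effect was scored on day 14 after treatment.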

[6] = tested on: barnyard grass (Eo); assay: Test Example 4: selectivity for a crop plant by flooded paddy field treatment; format: in vivo; parameters: scale not given here; conditions: dose 25 g active ingredient per 10 ares, examined on the 21st day after treatment
Method in brief: (§3)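 Flooded paddy pots, 3 cm water; weeds sown from seed, rice transplanted at 2nd-leaf stage. Day after: wettable powder diluted in water, applied dropwise to water surface, 25 g a.i./10 a. Greenhouse; herbicidal effect rated at day 21.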

[7] = tested on: monochoria (Mo); assay: as above; format: in vivo; parameters: scale not given here; conditions: dose 25 g active ingredient per 10 ares, examined on the 21st day after treatment
Method in brief: as §3

[8] = tested on: rice (Or); assay: as above; format: in vivo; parameters: scale not given here; conditions: rice transplanted at second leaf stage, dose 25 g active ingredient per 10 ares, examined on the 21st day after treatment
Method in brief: as §3

[9] = tested on: barnyard grass (Ec); assay: Test Example 5: selectivity for a crop plant by soil treatment in upland field; format: in vivo; parameters: scale not given here; conditions: dose 25 gai/10a, 21st day after treatment, index per Table 44
Experimental: (§4) In a 80 cm^2 plastic pot, upland soil was filled, and seeds of barnyard grass (Ec), green foxtail (Se), soybean (G1), wheat (Tr) and corn (Ze) were sown and covered with soil. A wettable powder prepared in accordance with Formulation Example 1 was diluted with water and uniformly applied to the soil surface by a small size spray at a rate of 100 l per 10 ares so that the dose of the active ingredient would be 25 g per 10 ares. Thereafter, cultivation was carried out in a green house, and on the 21st day after the treatment, the herbicidal effects were examined in accordance with the standards of Table 44.

[10] = tested on: corn (Ze); assay: as above; format: in vivo; parameters: scale not given here; conditions: dose 25 gai/10a, 21st day after treatment, index per Table 44
Experimental: as §4

[11] = tested on: soybean (G1); assay: as above; format: in vivo; parameters: scale not given here; conditions: dose 25 gai/10a, 21st day after treatment, index per Table 44
Experimental: as §4

[12] = tested on: wheat (Tr); assay: as above; format: in vivo; parameters: scale not given here; conditions: dose 25 gai/10a, 21st day after treatment, index per Table 44
Experimental: as §4
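Wherever Herbicidal effect index, Mo is given: 0-5 growth inhibition grade; 5 = over 90%; 4 = 70-90%; 3 = 50-70%; 2 = 30-50%; 1 = 10-30%; 0 = under 10%.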

Or (effect on crop plant rice, index) [8]	melting point [°C]	Structure (SMILES)	Herbicidal effect index, Eo [1]	Herbicidal effect index, Mo [2]	herbicidal effects, Ec (barnyard grass) [3]	herbicidal effects, Se (green foxtail) [4]	Ec (herbicidal effects, index) [5]	Eo (herbicidal effects, index) [6]	Mo (herbicidal effects, index) [7]	Ec (herbicidal effect index) [9]	Ze (herbicidal effect index on crop) [10]	Gl (herbicidal effect index on crop) [11]	Tr (herbicidal effect index on crop) [12]	herbicidal effects, Eo (barnyard grass) [1]	herbicidal effects, Mo (monochoria) [2]
1	–	CC(C)C(c1cncnc1C(F)(F)F)N(C(=O)Cc1ccc(F)cc1)C1CC1 (racemic) [Compound 1-83]	5	5	5	5	5	5	5	5	1	1	2	–	–
–	99 to 100	CC(C)C(c1cncnc1C(F)(F)F)N(C)C(=O)Cc1ccccn1 (stereo not drawn) [Compound 2-3, N-methyl-N-[2-methyl-1-(4-trifluoromethylpyrimidin-5-yl)propyl]-2-pyridylacetamide]	–	–	–	–	–	–	–	–	–	–	–	5	5
0	–	Cc1ccc(CC(=O)N(C)C(c2cncnc2C)C(C)C)cc1 (racemic) [Compound 1-89]	5	5	5	5	5	5	5	4	2	0	2	–	–
–	171 to 172	CC(C)C(c1cncnc1C=NO)N(C)C(=O)Cc1ccccc1 (stereo not drawn) [Compound 1-500, N-[1-(4-hydroxyiminomethylpyrimidin-5-yl)-2-methylpropyl]-N-methylphenylacetamide]	–	–	–	–	–	–	–	–	–	–	–	5	5

Continued, compound first:

Structure (SMILES)	Or (effect on crop plant rice, index) [8]	melting point [°C]	Herbicidal effect index, Eo [1]	Herbicidal effect index, Mo [2]	herbicidal effects, Ec (barnyard grass) [3]	herbicidal effects, Se (green foxtail) [4]	Ec (herbicidal effects, index) [5]	Eo (herbicidal effects, index) [6]	Mo (herbicidal effects, index) [7]	Ec (herbicidal effect index) [9]	Ze (herbicidal effect index on crop) [10]	Gl (herbicidal effect index on crop) [11]	Tr (herbicidal effect index on crop) [12]	herbicidal effects, Eo (barnyard grass) [1]	herbicidal effects, Mo (monochoria) [2]
CC(C)C(c1cncnc1C(F)(F)F)N(C)C(=O)Cc1ccc(Cl)cc1F (racemic) [Compound 1-46]	0	–	5	5	5	5	4	5	5	5	0	1	3	–	–
CC(C)C(c1cncnc1C1CC1)N(C)C(=O)Cc1ccc(Cl)cc1 (racemic) [Compound 1-78]	1	–	5	5	5	5	5	5	5	5	0	0	1	–	–
Cc1ccc(CC(=O)N(C)C(c2cncnc2C(F)(F)F)C(C)(C)C)cc1 (racemic) [Compound 1-55]	1	–	5	5	5	5	4	5	5	5	0	1	1	–	–
CN(C(=O)Cc1ccc(Cl)cc1)C(c1cncnc1C(F)(F)F)C(C)(C)C (racemic) [Compound 1-54]	1	–	5	5	5	5	5	5	5	4	0	0	1	–	–
